The target of the assay is TRKA (Homo sapiens (Human), UniProt P04629). The experiment in a line: Isolated TRK enzyme assay (HTRF KinEASE-TK), PV3144 TrkA enzyme assay. The note with it: arithmetic mean where more than one reading. The assay is classed as biochemical. A digest of the protocol:
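His-tagged TrkA cytoplasmic domain preactivated with ATP 20 min, then with compound 20 min at room temperature before 1 µM final biotin-TK substrate; HTRF 665/620 nm read.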
In general terms: In TR-FRET formats the signal depends on donor and acceptor labels being close together.
Sequence of TRKA (P04629 441-796): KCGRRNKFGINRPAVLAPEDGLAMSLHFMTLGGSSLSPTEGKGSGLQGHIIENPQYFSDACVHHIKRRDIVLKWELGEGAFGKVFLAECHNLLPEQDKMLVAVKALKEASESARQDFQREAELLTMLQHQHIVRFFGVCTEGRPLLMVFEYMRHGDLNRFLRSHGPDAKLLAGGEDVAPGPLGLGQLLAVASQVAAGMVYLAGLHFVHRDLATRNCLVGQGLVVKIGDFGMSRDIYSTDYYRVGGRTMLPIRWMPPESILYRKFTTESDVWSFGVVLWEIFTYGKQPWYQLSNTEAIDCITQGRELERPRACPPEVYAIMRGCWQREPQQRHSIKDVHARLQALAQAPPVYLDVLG
In general, IC50 refers to the concentration that gives 50% inhibition. Higher therefore signals a need for much substance. Compound `CC(C)n1cc(C(=O)c2cncc(NC(=O)Cn3cc(C4CC4)nn3)c2)c2cnccc21` [Example 51, 2-(4-cyclopropyl-1H-1,2,3-triazol-1-yl)-N-(5-{[1-(propan-2-yl)-1H-pyrrolo[3,2-c]pyridin-3-yl]carbonyl}pyridin-3-yl)acetamide] had an IC50 of 0.0682 µM.

Compound `CC(C)c1cn(CC(=O)Nc2cncc(C(=O)c3cn(C(C)CO)c4ccncc34)c2)nn1` (single isomer, unassigned) [Example 62, N-(5-{[1-(1-hydroxypropan-2-yl)-1H-pyrrolo[3,2-c]pyridin-3-yl]carbonyl}pyridin-3-yl)-2-[4-(propan-2-yl)-1H-1,2,3-triazol-1-yl]acetamide] displayed an IC50 of 0.0543 µM.

Compound `Cc1nonc1CC(=O)Nc1cncc(C(=O)c2cn(C(C)C)c3ccncc23)c1` [Example 40, 2-(4-methyl-1,2,5-oxadiazol-3-yl)-N-(5-{[1-(propan-2-yl)-1H-pyrrolo[3,2-c]pyridin-3-yl]carbonyl}pyridin-3-yl)acetamide] gave an IC50 of 1.73 µM.

`Cc1nc(C)n(CC(=O)Nc2cc(C(=O)c3cn(C(C)C)c4ccncc34)ccn2)n1` [Example 112, 2-(3,5-dimethyl-1H-1,2,4-triazol-1-yl)-N-(4-{[1-(propan-2-yl)-1H-pyrrolo[3,2-c]pyridin-3-yl]carbonyl}pyridin-2-yl)acetamide] registered an IC50 of 5.11 µM.

As to `Cc1ccnn1CC(=O)Nc1cc(C(=O)c2cn(CCO)c3ccncc23)ccn1` [Example 155, N-(4-{[1-(2-hydroxyethyl)-1H-pyrrolo[3,2-c]pyridin-3-yl]carbonyl}pyridin-2-yl)-2-(5-methyl-1H-pyrazol-1-yl)acetamide], the IC50 was found to be 2.39 µM.

`O=C(Cc1ccc(F)cc1)Nc1cc(C(=O)c2cn(CCO)c3ccncc23)ccn1` [Example 148, 2-(4-fluorophenyl)-N-(4-{[1-(2-hydroxyethyl)-1H-pyrrolo[3,2-c]pyridin-3-yl]carbonyl}pyridin-2-yl)acetamide] displayed an IC50 of 0.424 µM.

In turn, `CC(C)n1cc(C(=O)c2cc(NC(=O)Cn3cc(C(F)(F)F)cn3)ccn2)c2cnccc21` [Example 30, N-(2-{[1-(propan-2-yl)-1H-pyrrolo[3,2-c]pyridin-3-yl]carbonyl}pyridin-4-yl)-2[4-(trifluoromethyl)-1H-pyrazol-1-yl]acetamide] came in with an IC50 of 0.0133 µM.

`CC(C)n1cc(C(=O)c2cncc(NC(=O)Cc3ccc(C#N)cc3)c2)c2cnccc21` [Example 49, 2-(4-cyanophenyl)-N-(5-{[1-(propan-2-yl)-1H-pyrrolo[3,2-c]pyridin-3-yl]carbonyl}pyridin-3-yl)acetamide]: the IC50 is 0.18 µM.

Compound `CC(C)(CO)n1cc(C(=O)c2cncc(NC(=O)Cn3ccc(C(F)(F)F)n3)c2)c2cnccc21` [Example 236, N-(5-{[1-(1-hydroxy-2-methylpropan-2-yl)-1H-pyrrolo[3,2-c]pyridin-3-yl]carbonyl}pyridin-3-yl)-2-[3-(trifluoromethyl)-1H-pyrazol-1-yl]acetamide] yielded an IC50 of 0.0431 µM.

As for “N-(2-{[1-(1-hydroxypropan-2-yl)-1H-pyrrolo[3,2-c]pyridin-3-yl]carbonyl}pyridin-4-yl)-2-[4-(trifluoromethyl)phenyl]acetamide [Example 84]”, the IC50 was 0.141 µM.

As to `O=C(Cc1nc(C2CC2)oc1C1CC1)Nc1cc(C(=O)c2cn(C3COC3)c3ccncc23)ccn1` [Example 202, 2-(2,5-dicyclopropyl-1,3-oxazol-4-yl)-N-(4-{[1-(oxetan-3-yl)-1H-pyrrolo[3,2-c]pyridin-3-yl]carbonyl}pyridin-2-yl)acetamide], the IC50 was determined as 0.437 µM.

Take `CC(CO)n1cc(C(=O)c2cncc(NC(=O)Cc3ccc(Cl)cc3)c2)c2cncc(F)c21` (single isomer, unassigned) [Example 223, 2-(4-chlorophenyl)-N-(5-{[7-fluoro-1-(1-hydroxypropan-2-yl)-1H-pyrrolo[3,2-c]pyridin-3-yl]carbonyl}pyridin-3-yl)acetamide]: 0.0278 µM corresponded to half-maximal inhibition (IC50).

Consider `CC(C)n1cc(C(=O)c2cncc(NC(=O)Cc3cncn3C)c2)c2cnccc21` [Example 45, 2-(1-methyl-1H-imidazol-5-yl)-N-(5-{[1-(propan-2-yl)-1H-pyrrolo[3,2-c]pyridin-3-yl]carbonyl}pyridin-3-yl)acetamide], for which the IC50 worked out at 1.57 µM.

In turn, `O=C(Cn1cc(C(F)(F)F)nn1)Nc1cc(C(=O)c2cn(CCO)c3ccncc23)ccn1` [Example 156, N-(4-{[1-(2-hydroxyethyl)-1H-pyrrolo[3,2-c]pyridin-3-yl]carbonyl}pyridin-2-yl)-2-[4-(trifluoromethyl)-1H-1,2,3-triazol-1-yl]acetamide] yielded an IC50 of 0.342 µM.

`Cc1cc(C(F)(F)F)nn1CC(=O)Nc1cncc(C(=O)c2cn(C(C)CO)c3c(F)cncc23)c1` (single isomer, unassigned) [Example 216, N-(5-{[7-fluoro-1-(1-hydroxypropan-2-yl)-1H-pyrrolo[3,2-c]pyridin-3-yl]carbonyl}pyridin-3-yl)-2-[5-methyl-3-(trifluoromethyl)-1H-pyrazol-1-yl]acetamide] gave a 50% inhibitory concentration (IC50) of 0.0204 µM.

Take `CC(C)n1cc(C(=O)c2cncc(NC(=O)Cn3ccc(C(F)(F)F)n3)c2)c2cnccc21` [Example 21, N-(5-{[1-(propan-2-yl)-1H-pyrrolo[3,2-c]pyridin-3-yl]carbonyl}pyridin-3-yl)-2-[3-(trifluoromethyl)-1H-pyrazol-1-yl]acetamide]: inhibition was half-maximal at 0.0271 µM (IC50).

`Cc1oc(C2CC2)nc1CC(=O)Nc1cc(C(=O)c2cn(C(C)C)c3ccncc23)ccn1` [Example 78, 2-(2-cyclopropyl-5-methyl-1,3-oxazol-4-yl)-N-(4-{[1-(propan-2-yl)-1H-pyrrolo[3,2-c]pyridin-3-yl]carbonyl}pyridin-2-yl)acetamide]: the half-inhibitory concentration (IC50) stood at 0.0158 µM.

`CC(C)c1cn(CC(=O)Nc2cncc(C(=O)c3cn(C(C)C)c4ccncc34)c2)nn1` [Example 123]: half-maximal inhibition (IC50) required 0.0595 µM.

As to `CC(CO)n1cc(C(=O)c2cncc(NC(=O)Cc3ccc(F)cn3)c2)c2cncc(F)c21` (single isomer, unassigned) [Example 212, N-(5-{[7-fluoro-1-(1-hydroxypropan-2-yl)-1H-pyrrolo[3,2-c]pyridin-3-yl]carbonyl}pyridin-3-yl)-2-(5-fluoropyridin-2-yl)acetamide], the midpoint of inhibition, the IC50, lay at 0.479 µM.

On to `N#Cc1ccc(CC(=O)Nc2cc(C(=O)c3cn(C4COC4)c4ccncc34)ccn2)cc1C(F)(F)F` [Example 221, 2-[4-cyano-3-(trifluoromethyl)phenyl]-N-(4-{[1-(oxetan-3-yl)-1H-pyrrolo[3,2-c]pyridin-3-yl]carbonyl}pyridin-2-yl)acetamide], for which the midpoint of inhibition, the IC50, lay at 0.138 µM.

`CC(C)n1cc(C(=O)c2cc(NC(=O)Cc3cnn(C4CC4)c3C(F)(F)F)ccn2)c2cnccc21` [Example 56, 2-[1-cyclopropyl-5-(trifluoromethyl)-1H-pyrazol-4-yl]-N-(2-{[1-(propan-2-yl)-1H-pyrrolo[3,2-c]pyridin-3-yl]carbonyl}pyridin-4-yl)acetamide] gave an IC50 of 0.177 µM.

Take `CC(C)(CO)n1cc(C(=O)c2cc(NC(=O)Cc3ccc(C(F)(F)F)cc3)ccn2)c2cnccc21` [Example 231, N-(2-{[1-(1-hydroxy-2-methylpropan-2-yl)-1H-pyrrolo[3,2-c]pyridin-3-yl]carbonyl}pyridin-4-yl)-2-[4-(trifluoromethyl)phenyl]acetamide]: the IC50 was found to be 0.0128 µM.

In turn, `CC(C)(CO)n1cc(C(=O)c2cncc(NC(=O)Cn3ccc(C4CC4)n3)c2)c2cncc(F)c21` [Example 2, 2-(3-Cyclopropyl-pyrazol-1-yl)-N-{5-[7-fluoro-1-(2-hydroxy-1,1-dimethyl-ethyl)-1H-pyrrolo[3,2-c]pyridine-3-carbonyl]-pyridin-3-yl}-acetamide] displayed an IC50 of 0.00558 µM.

Turning to `CC(C)c1ccnn1CC(=O)Nc1cc(C(=O)c2cn(C(C)C)c3ccncc23)ccn1` [Example 111, 2-[5-(propan-2-yl)-1H-pyrazol-1-yl]-N-(4-{[1-(propan-2-yl)-1H-pyrrolo[3,2-c]pyridin-3-yl]carbonyl}pyridin-2-yl)acetamide], the IC50 was found to be 0.0968 µM.

With `CC(CO)n1cc(C(=O)c2cc(NC(=O)Cc3ccc(Cl)cn3)ccn2)c2cnccc21` (single isomer, unassigned) [Example 17, 2-(5-chloropyridin-2-yl)-N-(2-{[1-(1-hydroxypropan-2-yl)-1H-pyrrolo[3,2-c]pyridin-3-yl]carbonyl}pyridin-4-yl)acetamide], the IC50 was determined as 0.106 µM.

As for `CC(C)n1cc(C(=O)c2ccnc(NC(=O)Cc3ccc(C#N)cn3)c2)c2cnccc21` [Example 138, 2(5-cyanopyridin-2-yl)-N-(4-{[1-(propan-2-yl)-1H-pyrrolo[3,2-c]pyridin-3-yl]carbonyl}pyridin-2-yl)acetamide], the IC50 was found to be 0.0453 µM.

Regarding `Cc1cc(C(F)(F)F)nn1CC(=O)Nc1cncc(C(=O)c2cn(C(C)C)c3c(F)cncc23)c1` [Example 32, N-(5-{[7-fluoro-1-(propan-2-yl)-1H-pyrrolo[3,2-c]pyridin-3-yl]carbonyl}pyridin-3-yl)-2-[5-methyl-3-(trifluoromethyl)-1H-pyrazol-1-yl]acetamide], the midpoint of inhibition, the IC50, lay at 0.0114 µM.

With `Cc1cc(C(F)(F)F)nn1CC(=O)Nc1cncc(C(=O)c2cn(C(C)C)c3ccncc23)c1` [Example 121, 2-(5-methyl-3-(trifluoromethyl)-1H-pyrazol-1-yl]-N(5-{[1-(propan-2-yl)-1H-pyrrolo[3,2-c]pyridin-3-yl]carbonyl}pyridin-3-yl)acetamide], the IC50 came out at 0.0143 µM.

In the case of `Cc1cn(CC(=O)Nc2cc(C(=O)c3cn(C(C)C)c4ccncc34)ccn2)nn1` [Example 114, 2-(4-methyl-1H-1,2,3-triazol-1-yl)-N-(4-{[1-(propan-2-yl)-1H-pyrrolo[3,2-c]pyridin-3-yl]carbonyl}pyridin-2-yl)acetamide], the IC50 turned out to be 0.289 µM.

`CC(C)n1cc(C(=O)c2cncc(NC(=O)Cn3cc(C(F)(F)F)cn3)c2)c2cncc(F)c21` [Example 31, N-(5-{[7-fluoro-1-(propan-2-yl)-1H-pyrrolo[3,2-c]pyridin-3-yl]carbonyl}pyridin-3-yl)-2[4-(trifluoromethyl)-1H-pyrazol-1-yl]acetamide] showed an IC50 of 0.00966 µM.

These data come from US9163021B2, “Pyrrolo[3,2-c]pyridine tropomyosin-related kinase inhibitors” (Pfizer Limited, priority 2012, dated 2015).
